# From BindingDB's records for doi:10.1021/jm00019a006 (Glaxo Wellcome Medicines Research Centre, 1995)
# pKi: −log10 of the molar value.
# Assay: The compound was tested for binding affinity against Tachykinin receptor 1 from rabbit cortex
structure (smiles),measurement,value
O=C1OC2(CCN(CCc3c[nH]c4ccc(F)cc34)CC2)CN1Cc1ccccc1,pKi,5.10
